Measured values: ChEMBL document CHEMBL1275423 (Antimicrob Agents Chemother, 2008)
≈ marks a conversion by molar mass, not a printed value. Calls of active or inactive are those of the source. No cut-off for these calls is given here.

Key:
Assay type in all cases: functional, organism-based
[1] = tested on: Bacillus anthracis; test: Antimicrobial activity against Bacillus anthracis MurA1 AS clone 2G2 assessed as growth inhibition in presence of xylose by antisense-induced hypersensitive testing
[2] = tested on: Bacillus anthracis; test: Antimicrobial activity against Bacillus anthracis metRS1 AS 1H1 assessed as growth inhibition in presence of xylose by antisense-induced hypersensitive testing
[3] = tested on: Bacillus anthracis; test: Antimicrobial activity against Bacillus anthracis MurA1 AS clone 2G2 assessed as growth inhibition in absence of xylose by antisense-induced hypersensitive testing
[4] = Bacillus anthracis, MurA1 AS clone 2G2, read-out: IC50

**Q.** For CCN1CCN(C(=O)N[C@@H](C(=O)N[C@@H]2C(=O)N3[C@@H]2SC(C)(C)[C@@H]3C(=O)O)c2ccccc2)C(=O)C1=O, which inhibition [1] is on record?
**A.** Active

**Q.** With CN[C@H](CC(C)C)C(=O)N[C@H]1C(=O)N[C@@H](CC(N)=O)C(=O)N[C@H]2C(=O)N[C@H]3C(=O)N[C@H](C(=O)N[C@H](C(=O)O)c4cc(O)cc(O)c4-c4cc3ccc4O)[C@H](O)c3ccc(c(Cl)c3)Oc3cc2cc(c3O[C@@H]2O[C@H](CO)[C@@H](O)[C@H](O)[C@H]2O[C@H]2C[C@](C)(N)[C@H](O)[C@H](C)O2)Oc2ccc(cc2Cl)[C@H]1O as the compound, how does the inhibition [1] read?
**A.** Active

**Q.** For Cc1onc(-c2ccccc2)c1C(=O)N[C@@H]1C(=O)N2[C@@H]1SC(C)(C)[C@@H]2C(=O)O, which inhibition [1] is on record?
**A.** Active

**Q.** How did the inhibition [2] turn out when O=C(O)c1ccc(OCc2nc3ccccc3[nH]2)c(OCc2ccc(Cl)cc2Cl)c1 was run?
**A.** Active

**Q.** What does the source list for C[C@@H]1O[C@@H]1P(=O)(O)O [FOSFOMYCIN]?
**A.** IC50 [3, 4]: 126 µg/mL (≈ 913 µM); IC50 [1, 4]: 18 µg/mL

**Q.** Which results are given for CN(C)[C@@H]1C(O)=C(C(N)=O)C(=O)[C@@]2(O)C(O)=C3C(=O)c4c(O)cccc4[C@@](C)(O)[C@H]3C[C@@H]12 [TETRACYCLINE]?
**A.** IC50 [3]: Not Active; IC50 [1]: Not Active
